Assay results published in publication PMC8143291, “Cytotoxicity and Microbicidal Activity of Commonly Used Organic Solvents: A Comparative Study and Application to a Standardized Extract from Vaccinium macrocarpon” (Toxics, 2021).

What was measured:
Bacillus subtilis = conditions: cited from earlier work
[1] = test system: CCL-1 (transformed mouse fibroblasts, NCTC clone 929); test: MTT dye-reduction cytotoxicity assay (ISO 10993-5); format: cell-based; conditions: solvent alone, 72 h, at least 70% of cells viable, n = 3
Source text: (§1) The cell lines utilized in this study included the human tumor lines A-375 (malignant melanoma) and A-431 (non-melanoma epidermoid squamous skin carcinoma) as well as the models for non-tumorigenic cells—HaCaT (immortalized human keratinocytes) and CCL-1^TM (transformed mouse fibroblasts, NCTC clone 929). The first three cell lines were obtained from CLS Cell Lines Service (GmbH, Eppelheim, Germany). CCL-1^TM was purchased from the American Type Culture Collection (ATCC, Manassas, VA, USA). Cells were maintained in a controlled environment—sterile cell culture flasks in a CO2 incubator Panasonic MCO-18AC (Panasonic Healthcare co., ltd, Oizumi-Machi, Japan) at 37 °C and a humidified atmosphere containing 5% CO2. CCL-1 was cultured in MEM with 10% heat-inactivated horse serum and 2 mM L-glutamine, and the cell culture medium for the rest of the cell lines was DMEM-HG with 4.5 g/L glucose with the addition of 10% heat-inactivated fetal bovine serum and 4 mM L-glutamine. Pen/strep (concentration of penicillin G sodium 10^5 Units/L and of streptomycin sulfate 100 mg/L) was added to both culture media. The cell lines were maintained as an adherent monolayer in a log phase. The cells were sub-cultivated about 1–3 times per week after the monolayer reached 80–90% confluence. The medium was removed from the flask, and the cell monolayer was washed with 3–5 mL PBS. The cells were incubated with 0.05% EDTA in PBS for 8–10 min, followed by the next step where all cell lines were subjected to enzyme cell detachment. HaCaT and CCL-1 monolayers were detached with 1 mL solution of trypsin/EDTA (0.1%/0.05% for HaCaT and 0.25% (w/v)/0.53 mM for CCL-1) and incubated for 2–5 min at 37 °C (for HaCaT) or at room temperature (for CCL-1 cells), whereas Accutase® was used for A-375 and A-431 lines. The incubation lasted until the separation and dispersion of the cells in the monolayer were observed using light microscopy. In the end, all cell lines were resuspended in 10 mL medium and centrifuged for 3 min at 300× g. The cell pellet was resuspended in fresh medium and sub-cultivated at a seeding density of 1.0 × 10^4 cells/cm^2.
(§2) The MTT test was performed in order to determine the median inhibitory (IC50) and MTC concentrations of the solvents and PAC according to Annex C, ISO 10993-5 [2, 21]. Briefly, 100 µL of the cell suspension (1 × 10^5 cells/mL) were seeded per well in 96-well plates with a flat bottom. The cells were incubated for 24 h, allowing them to enter the log phase of their growth. On the 24th hour, the cells were treated with the solvents or CystiCran® solutions in concentrations ranging between 0.004% and 2% volume fraction (v/v) and incubated further for 72 h. The incubation periods are following the recommendations of the FDA guide for the use of ISO 10993-1 [1]. At the end of the incubation period, 10 µL of an MTT solution (5 mg/mL) were added to each well, and the plates were kept at 37 °C for 2 hours. Thereafter, the medium was aspirated, and the formed formazan crystals were dissolved in 100 μL/well of 2-propanol supplemented with 5% formic acid. The same solvent was used as a blank. Untreated cells were considered as a negative control. […] The absorption was measured at 540 nm (reference filter at 690 nm) on a microplate reader ELx800 (BioTek Instruments, Inc., Winooski, VT, Winooski, VT, USA).
(§3) The IC50 values from the MTT assay were evaluated with a non-linear regression analysis (Curve fit, GraphPad Prizm 6.01 software, GraphPad Software Inc., San Diego, CA, USA) using sigmoidal concentration–response curves. The cell viability is presented as a percentage of the untreated control. At least four wells were seeded for every concentration. Three independent assays were performed (n = 3).

[2] = test system: HaCaT (immortalized human keratinocytes); test: MTT dye-reduction cytotoxicity assay (ISO 10993-5); format: cell-based; conditions: solvent alone, 72 h, at least 70% of cells viable, n = 3
Source text: as §1, §2, §3

[3] = test system: breast cancer, mouse macrophage and human umbilical vein endothelial cells; parameters: method as in doi:10.17795/ajmb-33453; conditions: cited from earlier work

CN(C)C=O [DMF, N,N-dimethylformamide]
tolerated concentration (Bacillus subtilis): ≥ 10 % v/v
MTC (maximum tolerated concentration) [1]: 0.03 % (v/v)
MTC (maximum tolerated concentration) [2]: 0.03 % (v/v)
maximum tolerated concentration (MTC) / applicable concentration [3]: 0.1 % v/v
